How the values were obtained:
[1] = test system: mechanical hypersensitivity; assay: CCI-induced decrease in mechanical paw withdrawal threshold (algesymeter); format: in vivo, rat; details: CCI rats, drug administered from day 12, algesymeter
Source text: (§1) Under isoflurane anaesthesia, the common left sciatic nerve of male Random Hooded rats (180-200 g) was exposed at mid-thigh level. Four ligatures of chromic gut (4.0) were tied loosely around the nerve with a 1 mm spacing between each. The wound was then closed and secured with suture clips. The surgical procedure was identical for the sham operated animals except the sciatic nerve was not ligated. The rats were allowed a period of seven days to recover from the surgery before behavioural testing began.
The effect on Chronic Constriction Injury-induced decrease in mechanical paw withdrawal threshold was measured using an algesymeter (Randall L O, Selitto J J. A method for measurement of analgesic activity on inflamed tissue. Arch. Int. Pharmacodyn. 1957; 61:409-419). In brief, from 7 days post surgery onwards every 2 or 3 days the animals were tested for mechanical hypersensitivity by applying an increasing weight (16 gram per second) to the dorsal surface of each hindpaw until the rat attempted to remove the paw. The increasing weight was halted at this point and the weight recorded and expressed as mechanical paw withdrawal threshold. The maximum weight applied in this model was 250 gram. Drug was administered once the hypersensitivity was maximal which in this case was at day 12.

[2] = test system: mechanical allodynia; assay: CCI mechanical allodynia, Von Frey Hair monofilaments; format: in vivo, rat; details: CCI rats, drug administered from day 12, Von Frey Hair monofilaments
Source text: as §1
The presence of mechanical allodynia was assessed using Von Frey Hair monofilaments (range:4.19-84.96 g). The rats were lightly restrained and placed upon a metal grid floor. The monofilaments were applied to the plantar surface of the hindpaws from below the grid. The lowest monofilament to produce a withdrawal was the response recorded.

[3] = test system: apoptotic neurons in L5 dorsal root ganglions; assay: Neuronal apoptosis after sciatic nerve axotomy in the neonatal rat (TUNEL combined with Hoechst 33342 and immunohistochemistry); format: in vivo; details: single pre-emptive injection 10 mg/kg s/c, observed at 24 hours, vs vehicle treated controls
Description: Newborn animals received a single pre-emptive injection of R(−)-2,4-diamino-5-(2,3-dichlorophenyl)-6-fluoromethyl pyrimidine, substantially free of the corresponding S(+)enantiomer (4030W92) (10 mg/kg, s/c). Twenty minutes later the animals were anaesthetised by hypothermia, the nerve exposed and transected at the mid thigh level. The extent of neuronal and glial apoptosis was investigated using the TUNEL technique combined with Hoechst 33342 (Sigma) and immunohistochemistry. The ipsilateral and contralateral L5 dorsal root ganglions were compared and the 4030W92 treated group was compared to vehicle treated controls and to animals that received an injection of 4030W92 alone, ie. no nerve transection.

[4] = test system: sensory neuronal apoptosis; assay: Apoptosis in L4 and L5 dorsal root ganglia after chronic constriction injury (CCI), Hoechst 33342 staining; format: in vivo, rat; details: for number of neurones undergoing apoptosis (FIG. 2): CCI rats, 10 mg/kg, time points day 7, 21 and 30, vs vehicle treated animals; for sensory neuronal apoptosis / glial apoptosis: adult male CCI rats; for sensory neuronal apoptosis: 10 mg/kg dosed day 12 to day 25, at day 30 post surgery; for glial apoptosis: 10 mg/kg dosed day 12 to day 25, results not shown
Description: Adult male random hooded rats were either chronic constriction injury (CCI) or sham operated at day 0. Dosing with vehicle, 4030W92 (10 mg/kg) or 4082W92 (10 mg/kg) was from day 12 to day 25. At time points 7, 14, 21, 27 and 30 days post surgery animals (n=3 per group except for naives) were sacrificed by exsanguination after behavioural testing as described below. Naive animals were all sacrificed 30 days post surgery. L4 and L5 dorsal root ganglias were removed and placed in a freezing medium for sectioning. Sections (14 μm) were cut using a freezing cryostat (Leica) and placed on poly (L) lysine coated slides. These were post-fixed in 4% paraformaldehyde (Sigma) for 20 minutes, dehydrated through alcohol and kept at −80° until required. On the day of staining, the sections were rehydrated through alcohol and placed in phosphate buffered saline (PBS) for at least 15 minutes. They were incubated with the fluorescent nuclear stain Hoechst 33342 (1 μg/ml) (Sigma) for 4 minutes and then washed extensively with PBS. After drying, the slides were mounted with Vectashield mounting medium (Vector Labs) and coverslipped. The slides could be kept in the dark for up to 6 weeks without fading.
The sections were studied under the microscope (Leica) at 400× for morphological signs of apoptosis—nuclear condensation, membrane blebbing and presence of apoptotic bodies (Trump 1997 supra). Cells were assigned as neurones or glia depending on their size, location, and general morphology. Four fields from each section were selected at random, the number of apoptotic cells and total number of cells was counted in each and then mean figures for each group were calculated. This analysis was carried out blind. […] Glial apoptosis was unaffected (results not shown).

[5] = test system: motorneuronal apoptotic cell death; details: after neonatal axotomy; cited from earlier work

SMILES | mechanical paw withdrawal threshold [1] | Von Frey withdrawal threshold (mechanical allodynia) [2] | number of apoptotic neurons [3] | number of neurones undergoing apoptosis (FIG. 2) [4] | sensory neuronal apoptosis [4] | glial apoptosis [4] | motorneuronal apoptotic cell death [5]
Nc1nc(N)c(-c2cccc(Cl)c2Cl)c(CF)n1 (atropisomer, axis not shown) [4030W92, R(−)-2,4-diamino-5-(2,3-dichlorophenyl)-6-fluoromethyl pyrimidine] | significantly reversed the reduction in thresholds | significantly reversed the reduction in thresholds | significant reduction in the number of apoptotic neurons | decreases | significantly reduced sensory neuronal apoptosis | unaffected | –
Nc1nnc(-c2cccc(Cl)c2Cl)c(N)n1 [lamotrigine, 3,5-diamino-6-(2,3-dichlorophenyl)-1,2,4-triazine] | – | – | – | – | – | – | can prevent motorneuronal apoptotic cell death
Nc1nc(N)c(-c2cccc(Cl)c2Cl)c(CF)n1 [4082W92, S(+)-2,4-diamino-5-(2,3-dichlorophenyl)-6-fluoromethylpyrimidine] | – | – | – | decreases | significantly reduced sensory neuronal apoptosis | unaffected | –

Source: patent publication US6548507B1, “Medical use” (SmithKline Beecham Corporation, priority 1999, dated 2003)
